According to patent US7678941B2, “Polyoxyalkylene ammonium salts and their use as antistatic agents” (3M Innovative Properties Company, priority 2001, dated 2010):

Key:
[1] = Surface tension determination (Kruss K12 Tensiometer, Wilhelmy plate); type: physicochemical
Method: Test Method III—Surface Tension Determination
All surface tensions were determined using a Kruss K12 Tensiometer. It was integrated with an automatic dosimat and a computer, using a software package for dynamic contact angle (K121). The program was run using a Wilhelmy platinum plate (PL12) and glass sample vessel (GL7). All parts referenced above including instrument and computer can be purchased directly from Kruss USA, Charlotte, N.C.

[2] = Bioelimination study, amount of fluorochemical sulfonate in male rat liver tissue; type: in vivo; settings: for Amount of Sulfonate, Day 1N / Amount of Sulfonate, Day 1 / Amount of Sulfonate, Day 14N / Amount of Sulfonate, Day 14 / Amount of Sulfonate, Day 28N / Amount of Sulfonate, Day 28: male rat liver; for Amount of Sulfonate, Day 1N / Amount of Sulfonate, Day 14N / Amount of Sulfonate, Day 28N: normalized to a feeding level of 3 mg/kg body weight per day; for Amount of Sulfonate, Day 1 / Amount of Sulfonate, Day 14 / Amount of Sulfonate, Day 28: potassium salts dosed at 30 (C4), 10 (C6), 3 (C8) mg/kg body weight/day; for elimination from the body: tested in the form of its potassium salt
Method: Bioelimination Study with Perfluorobutanesulfonate
Comparative study of potassium perfluorobutanesulfonate (using a dose level of 30 mg/kg body weight/day), potassium perfluorohexanesulfonate (using a dose level of 10 mg/kg body weight/day), and potassium perfluorooctanesulfonate (using a dose level of 3 mg/kg body weight/day).

[3] = Surface Resistivity Test (ASTM D-257) of topically coated polyester film; settings: 72° F., 27% relative humidity; for Surface Resistivity 1% MEK solution: 1% solution in MEK coated on polyester film; for Surface Resistivity 6% MEK: 6% solution in MEK coated on polyester film
Method: Test Method IV—Surface Resistivity Test
The Surface Resistivity Test was conducted according to the procedure of ASTM Standard D-257; “D.C. Resistance or Conductance of Insulating Materials”. The surface resistivity was measured under these conditions using an ETS Model 872 Wide Range Resistance Meter fitted with a Model 803B probe (Electro-Tech Systems, Inc., Glenside, Pa.). This apparatus applies an external voltage of 10 Volts across two concentric ring electrodes and provides surface resistivity readings in ohm/cm^2. The room temperature was 72° F. and there was a 27% relative humidity.
Topically Coated Polyester Film.
A 1% and 6% solution of the antistatic agent to be tested in methylethyl ketone (MEK) was prepared. About 2 mL of solution was pipetted onto the top of a sheet of polyester film with 25.5 cm by 17.8 cm dimensions. The solution was then drawn over the film using a #12 wire wound bar. The resulting coating was dried in a forced air oven for 2.5 minutes at 65° C.

[4] = Thermal gravimetric analysis (TGA); type: physicochemical; settings: for Wt. % remaining @ given Temp: nitrogen, 10° C. per minute ramp; for weight loss compared with chloride salt of the same cation: processing range of 200-320° C.
Method: Test Methods Test Method I—Thermal Gravimetric Analysis (TGA)
The thermal decomposition of each salt was determined by thermal gravimetric analysis (TGA) under an inert nitrogen atmosphere using a 10° C. per minute temperature ramp using a PerkinElmer Thermogravimetric Analyzer TGA 7, manufactured by PerkinElmer Instruments of Norwalk, Conn.
Table 3 provides thermal gravimetric data for antistats of the present invention and comparative antistats.

[5] = at 28 days following completion of feeding, after normalization to the same feeding levels
[6] = liver amount at 28 days following completion of feeding
[7] = liver amount immediately following completion of feeding

O=S(=O)([O-])C(F)(F)C(F)(F)C(F)(F)C(F)(F)F.[K+] [Antistat C4F9SO3K, Potassium perfluorobutane sulfonate]
surface energy ([1]; 10 ppm in water): 70 dyne/cm | surface energy ([1]; 100 ppm in water): 67.5 dyne/cm | surface energy ([1]; 1000 ppm in water): 53 dyne/cm | factor lower than C6F13SO3^− [2, 5]: 4400 | factor lower than C6F13SO3^− [2, 6]: > 1400 | factor lower than C6F13SO3^− [2, 7]: > 100 | Amount of Sulfonate, Day 1N [2]: 0.31 ppm | Amount of Sulfonate, Day 1 [2]: 3.09 ± 1.58 ppm | Amount of Sulfonate, Day 14N [2]: 0.0126 ppm | Amount of Sulfonate, Day 14 [2]: 0.126 ± 0.084 ppm | Amount of Sulfonate, Day 28N [2]: 0.0025 ppm | Amount of Sulfonate, Day 28 [2]: 0.025 ± 0.015 ppm | elimination from the body ([2]; listed as C4F9SO3^−): unexpectedly fast and effective elimination | elimination from the body ([2]; listed as perfluorobutanesulfonate): eliminates from the body more rapidly than perfluorohexanesulfonate and much more rapidly than perfluorooctanesulfonate

O=S(=O)([O-])C(F)(F)C(F)(F)C(F)(F)C(F)(F)C(F)(F)C(F)(F)C(F)(F)C(F)(F)F.[K+] [Antistat C8F17SO3K, Potassium perfluorooctanesulfonate]
surface energy ([1]; 10 ppm in water): 67.68 dyne/cm | surface energy ([1]; 100 ppm in water): 54.09 dyne/cm | surface energy ([1]; 1000 ppm in water): 33.17 dyne/cm | Amount of Sulfonate, Day 1N [2]: 419 ppm | Amount of Sulfonate, Day 1 [2]: 419 ± 86 ppm | Amount of Sulfonate, Day 14N [2]: 309 ppm | Amount of Sulfonate, Day 14 [2]: 309 + 34 ppm | Amount of Sulfonate, Day 28N [2]: 237 ppm | Amount of Sulfonate, Day 28 [2]: 237 ± 25 ppm

O=S(=O)([N-]S(=O)(=O)C(F)(F)C(F)(F)C(F)(F)C(F)(F)F)C(F)(F)C(F)(F)C(F)(F)C(F)(F)F.[K+] [C4F9SO2NKSO2C4F9, potassium bis(perfluorobutanesulfonyl)imide]
surface energy ([1]; 10 ppm in water): 61.85 dyne/cm | surface energy ([1]; 100 ppm in water): 41.61 dyne/cm | surface energy ([1]; 1000 ppm in water): 34.02 dyne/cm

O=S(=O)([O-])C(F)(F)C(F)(F)C(F)(F)C(F)(F)C(F)(F)C(F)(F)F.[K+] [C6F13SO3^−, potassium perfluorohexanesulfonate]
factor lower than C8F17SO3^− [2, 5]: 21.5 | factor lower than C8F17SO3^− [2, 6]: 6.5 | factor lower than C8F17SO3^− [2, 7]: 1.3 | Amount of Sulfonate, Day 1N [2]: 98 ppm | Amount of Sulfonate, Day 1 [2]: 327 ± 52 ppm | Amount of Sulfonate, Day 14N [2]: 19 ppm | Amount of Sulfonate, Day 14 [2]: 61.9 ± 11.7 ppm | Amount of Sulfonate, Day 28N [2]: 11 ppm | Amount of Sulfonate, Day 28 [2]: 36.3 ± 7.4 ppm

CH3CH2C[CH2(OCH2CH(CH3))xNH3^+][CH2(OCH2CH(CH3))yNH3^+][CH2(OCH2CH(CH3))zNH3^+][—N(SO2C4F9)2]3 where x+y+z˜5.3; JEFFAMINE™ T-403 DBI salt [Antistat 2]
Surface Resistivity 1% MEK solution [3]: 2.4 × 10^10 Ohm/cm^2 | Surface Resistivity 6% MEK [3]: 1.5 × 10^11 Ohm/cm^2

CH3CH2C[CH2(OCH2CH(CH3))xNH3^+][CH2(OCH2CH(CH3))yNH^3^+][CH2(OCH2CH(CH3))zNH3^+][^−N(SO2CF3)2]3 where x+y+z˜5.3; JEFFAMINE™ T-403 DMI salt [Antistat 3]
Surface Resistivity 1% MEK solution [3]: 1.7 × 10^9 Ohm/cm^2 | Surface Resistivity 6% MEK [3]: 1.1 × 10^9 Ohm/cm^2

[(+)H3NCH(CH3)CH2[OCH(CH3)CH2]a[OCH2CH2]8.5[OCH2CH(CH3)]CNH3(+)][C8F17SO3^−]2 (a+c=2.5) [Comparative Antistat 1]
Surface Resistivity 1% MEK solution [3]: 1.6 × 10^11 Ohm/cm^2 | Surface Resistivity 6% MEK [3]: 1.5 × 10^11 Ohm/cm^2

[(+)H3NCH(CH3)CH2[OCH(CH3)CH2]a[OCH2CH2]8.5[OCH2CH(CH3)]CNH3(+)][—N(SO2CF3)2]2 (a+c=2.5); JEFFAMINE™ XJT-500 [^—N(SO2CF3)2]salt [Antistat 7]
Surface Resistivity 1% MEK solution [3]: 1.2 × 10^9 Ohm/cm^2 | Surface Resistivity 6% MEK [3]: 3.7 × 10^8 Ohm/cm^2

[(+)H3NCH(CH3)CH2[OCH(CH3)CH2]a[OCH2CH2]8.5[OCH2CH(CH3)]cNH3(+)][—N(SO2C4F9)2]2 (a+c=2.5); JEFFAMINE™ XJT-500 DBI salt [Antistat 1]
Surface Resistivity 1% MEK solution [3]: 8.5 × 10^9 Ohm/cm^2 | Surface Resistivity 6% MEK [3]: 3.1 × 10^9 Ohm/cm^2

[C12H25N^+(CH3)(CH2CH2O)mH(CH2CH2O)nH][^−N(SO2CF3)2]; (m+n=15) [Antistat 4]
Wt. % remaining @ given Temp ([4]; 200° C.): 99.7 Wt. % | Wt. % remaining @ given Temp ([4]; 240° C.): 99.5 Wt. % | Wt. % remaining @ given Temp ([4]; 280° C.): 99.3 Wt. % | Wt. % remaining @ given Temp ([4]; 320° C.): 98.6 Wt. % | weight loss compared with chloride salt of the same cation [4]: less weight loss than ETHOQUAD™ C/25

[C12H25N^+(CH3)(CH2CH2O)mH(CH2CH2O)nH^−Cl] (m + n = 15) [ETHOQUAD ™ C/25]
Wt. % remaining @ given Temp ([4]; 200° C.): 97.2 Wt. % | Wt. % remaining @ given Temp ([4]; 240° C.): 89.4 Wt. % | Wt. % remaining @ given Temp ([4]; 280° C.): 85.9 Wt. % | Wt. % remaining @ given Temp ([4]; 320° C.): 81.8 Wt. %

[C18H37N^+(CH3)(CH2CH2O)mH(CH2CH2O)nH][^−N(SO2CF3)2]; (m+n=15) [Antistat 5]
Wt. % remaining @ given Temp ([4]; 200° C.): 99.6 Wt. % | Wt. % remaining @ given Temp ([4]; 240° C.): 99.2 Wt. % | Wt. % remaining @ given Temp ([4]; 280° C.): 98.9 Wt. % | Wt. % remaining @ given Temp ([4]; 320° C.): 98.0 Wt. % | weight loss compared with chloride salt of the same cation [4]: less weight loss than ETHOQUAD™ 18/25

[C18H37N^+(CH3)(CH2CH2O)mH(CH2CH2O)nH^−Cl] (m + n = 15) [ETHOQUAD ™ 18/25]
Wt. % remaining @ given Temp ([4]; 200° C.): 97.6 Wt. % | Wt. % remaining @ given Temp ([4]; 240° C.): 90.8 Wt. % | Wt. % remaining @ given Temp ([4]; 280° C.): 85.5 Wt. % | Wt. % remaining @ given Temp ([4]; 320° C.): 82.0 Wt. %

[CH3(OCH2CH2)19(OCH2CHCH3)2NH3^+][^−N(SO2CF3)2] [Antistat 6]
Surface Resistivity 1% MEK solution [3]: 1.6 × 10^9 Ohm/cm^2 | Surface Resistivity 6% MEK [3]: 7.8 × 10^9 Ohm/cm^2

[CH3(OCH2CH2)19(OCH2CHCH3)2NH3^+][^−O3SCF3] [Comparative Antistat 2]
Surface Resistivity 1% MEK solution [3]: 1.5 × 10^12 Ohm/cm^2 | Surface Resistivity 6% MEK [3]: 1.6 × 10^12 Ohm/cm^2
